Reference: US6593372B2, “Therapeutic uses for nitric oxide inhibitors” (Cold Spring Harbor Laboratory, priority 1996, dated 2003)
Marks after values point to notes of the source that are not given here.

What was measured:
[1] = test system: Drosophila melanogaster larvae; assay: Adult fly phenotype (leg segment hypertrophy) after injection of NOS inhibitors into third instar larvae; format: in vivo; conditions: adults after injection of late third instar larvae
Method: Chemicals were dissolved in Schneider's solution at concentrations of 0.1 M for L-NAME and D-NAME and 0.01M for ETU and mixed with Freund's adjuvant (Sigma) in 1:3 ratio. Amounts of 5-10 nl were microinjectd in staged late third instar using a glass needle.
To test this hypothesis, NOS activity was inhibited by injecting specific NOS inhibitors in the developing larvae at the end of the third instar, several hours before metamorphosis. Most of the larvae completed metamorphosis successfully, giving rise to adult flies within the normal time frame. The resulting adults differed from normal flies in many respects, the most dramatic being enlargements of the appendages and other structures of the fly body. The changes included a) hypertrophy of the demur, tibia and the segments of the tarsus; b) overgrowth of the tissues originating from the genital discs; in extreme cases, these cells contributed to more than one-quarter of the fly body; c) and increase of the overall surface of the wings; d) overgrowth of the cells of tergites and sternites; e) hypertrophy of the humerus; f) occasional duplications of some areas of the eye; g) occasional realformation of genital structures, legs and eyes; and h) occasional ectopic formation of misplaced body structures.
The changes were most profound in, and most often affected the legs of, the adults. […]

[2] = test system: transplanted BM cells, spleen colonies; assay: Hemopoietic colonies in spleens of irradiated mice after BM transplantation and injection of NOS inhibitors (erythroid differentiation); format: in vivo; conditions: 9-10 days after transplantation
Method: To study the formation of cell of the erythroid lineage in the spleen of the irradiated recipient mice, the animals (females of F1 CBA×C57B1 hybrids weighing 22-24 g) were treated with 750 cGy total body irradiation within 3-4 hours before transplantation. This dosage was tested to be enough for complete suppression of hematopoiesis in the irradiated recipient animals. BM cells were flushed from the femurs of syngeneic donors and injected intravenously (10^5 BM cells per mice) in the recipients. The animals received twice a day injections of 100 mg/kg of L-NAME and D-NAME and 10 mg/kg of ETU for 7-10 days. Mice were analyzed 9-10 days after transplantation.
In contrast, when animals were treated with NOS inhibitors after BM transplantation, most of the colonies in the spleen contained undifferentiated blast cells (up to 85% of blast cells colonies and mixed blast erythroid cells colonies). Erythroid colonies comprised only 15% of the total number of colonies, and the megakaryocyte and granulocyte colonies were not detectable. The results were similar with two structurally unrelated NOS inhibitors, confirming the specificity of their action. Thus, prolonged treatment of recipient mice after BM transfer with NOS inhibitor, reversed the ratio of blast cells-containing colonies to the erythroid cells-containing colonies almost 16 fold, effectively preventing erythroid differentiation.

BM cells [3] = assay: Hematopoietic markers in BM cells of irradiated mice after injection of NOS inhibitors; format: in vivo; conditions: 7-10 days after transplantation; for c-kit positive BM cells: control 2%; for IL-3-R positive BM cells: control 7%; for GM-CSF-R positive BM cells: control 18%; for G-CSF-R positive BM cells: control 24%
Method: To study the maturation of hematopoietic cells in the bone marrow of the irradiated recipient mice, the animals were treated as described above and the BM cells from the demurs of syngeneic donors were injected intravenously (10^5 BM cells per mice) in the recipients.
The BM cells were tested for the presence of various growth factor receptors which serve as markers of the differentiation stage and indicate the presence of stem cells and multipotent percursor cells. The BM preparations were tested for cells expressing receptors to HSF (ligand of c-kit), GM-CSF, G-CSF and IL-3.

[4] = test system: transplanted BM cells, membrane colonies; assay: Hemopoietic colonies on cellulose acetate membranes in the peritoneal cavity of irradiated mice (myeloid differentiation); format: in vivo; conditions: 7-8 days
Method: To study the formation of cells of the myeloid lineage, cellulose acetate membranes were implanted in the peritoneal cavity of mice. After 7 days, when a layer of fibroblasts had covered the membranes, the mice were irradiated as described above. BM cells from syngeneic donors were injected (10^5 BM cells per mice) in the peritoneal cavity of the recipients. Animals received injections of NOS inhibitors as described above. Membranes with growing colonies were isolated and analyzed 7-8 days later.
The differentiation status of the colonies in the spleen was evaluated by morphological criteria, myeloperoxidase reaction, and by immunohistochemical tests for the presence of receptors to various cytokines, which are present only at specific stages of the myeloid cells' maturation. […] A much smaller fraction contained undifferentiated blasts cells (6%), and a very small fraction of colonies contained erythroid cells (1.3%). In contrast, when animals were treated with NOS inhibitors after BM transplantation, most of the colonies on the membranes (up to 85%) contained and undifferentiated blasts cells. Colonies with differentiated cells of the granulocyte lineage comprised only 15.6% of the total number of colonies, and a negligible fraction of the colonies (<0.5%) contained erythroid cells. The results were similar with two structurally unrelated NOS inhibitors, confirming the specificity of their action. Thus, prolonged treatment of recipient mice after BM transfer with NOS inhibitor, reversed the ratio of blast cells-contiaing colonies to the granulocytic colinies almost 80-fold, effectively preventing myeloid differentiation.

[5] = test system: tadpole brain, optic tectum; assay: Elvax implants with NO donor or NOS inhibitor in brain ventricle of stage 45 tadpoles, optic tectum analysis; format: in vivo; conditions: for BrdU-positive cells (total), change / BrdU-positive cells per 10^3 cells, change / TUNEL-positive cells (total), change / TUNEL-positive cells per 10^3 cells, change / brain volume, change / cell density, change / cell number, change: vs saline control
Method: To test the effect of exogenously supplying NO to the developing tadpole brain, pieces of the slow-release matrix Elvax impregnated either with S-nitroso-N-acetylpenicillamin (SNAP, a widely used donor or NO which releases NO upon hydrolysis), or with saline as a control were inserted into the brain ventricle of state 45 tadpoles. At 1 or 3 days after implantation the following parameters in the optic tectum were analyzed: the total number of cells (as measured by the number of DAPI-stained nuclei), the number of S phase proliferating cells (as measured by BrdU incorporation), the number of apoptotic cells (as measured by TUNEL assay), the relative numbers of BrdU- and TUNEL-positive cells per 10^3 total cells, the size of the optic tectum, and the cell density in the tectum (Table 5). […] At 3 days the effects of NO on cell proliferation are less pronounced, likely reflecting the complete hydrolysis of the NO donor and the cessation of NO release. […] An increase in programmed cell death in response to NO likely contributes to the decrease in the total number of cells in the brain.
The close proximity of proliferating cells and NOS-expressing cells in the optic tectum and data from the NO donor experiments above are consistent with the proposed antiproliferative role of NO during Xenopus brain development. To test the causative role of NO in cell cycle arrest of neuronal precursors and to determine whether production of NO is necessary for cell cycle arrest and subsequent differentiation of neuronal precursors in the developing Xenopus brain, NOS activity in the brain was inhibited by using Elavax matrix impregnated with a NOS inhibitor, either L-NAME or ETU, or with saline as a control. Pieces of impregnated matrix were inserted into the brain ventricle of stage 45 tadpoles. After 3 days of treatment the brains were examined for changes in the patterns of cell division and differentiation, cell number, and overall size and morphology.
Animals, NOS inhibitors, and NO donors. Albino Xenopus laevis tadpoles were obtained by human chorionic gonadotrophin induced matings and raised under standard conditions. At state 45^5, animals were anesthetized in 0.02% 3-aminobenzoic acid (MS-222; Sigma) and a tiny piece (100 μm^2×30 μm) of slow release Elvax plastic polymer (Dupont) was inserted into the tectal ventricle through an incision made in the overlying skin with a 30 gauge needle. Elvax was prepared with stock concentrations of the NOS inhibitors, 2-ethyl-2thiopseudourea (ETU, Sigma) or L-nitro-arginine methyl ester (L-NAME, Sigma) or the NO donor S-nitroso-acetylpenicillamnin (SNAP, Sigma) prepared as a 1:10 ratio of chemical to polymer matrix. Low molecular weight molecules, including L-NAME, are released at a constant rate over a period up to 30 days as the lyophilized Elvax matrix slowly hydrates. […] Control animals were treated with Elvax impregnated with saline (0.1 M phosphate buffer).
Histochemistry and antibodies. Immunocytochemistry with wholemount preparations and sections of the tadpole was performed as described. Monoclonal antibodies to β-II tubulin, N-CAM (developed by U. Rutishauser), and Islet-1 (developed by T. M. Jessell) were obtained from the Developmental Studies Hybridoma Bank developed under the auspices of the NICHD and maintained by the University of Iowa, Department of Biological Sciences, Iowa City, Iowa 52243. Anti-mouse antibody conjugated to fluorescein (Bochringer Manheim) was used as a secondary antibody. Specimens were visualized and photographed under fluorescence or Normarski optics on a Zeiss Axiophot. For nuclei visualization, brain sections were stained with DAPI, a fluorescent DNA stain (Molecular Probes) at 1 μM. To identify cells in S phase tadpoles were injected with 50 μg/ml 5-Bromo-deoxyuridine (BrdU) (Beckton-dickinson). After two hours survival, animals were fixed in 3.7% paraformaldehyde for 2 hours and then in 70% ethanol overnight. […]

BM cells [6] = assay: TUNEL apoptosis in BM cells after prolonged treatment with NOS inhibitors; format: in vivo; conditions: control 8+/−3%
Text: To test whether prolonged treatment with NOS inhibitors affects the rate of programmed cell death in BM cells, the number of aproptotic cells in the preparation of BM cells was examined.

developing Xenopus brain = assay: Plastic impregnated with NOS inhibitors in brain ventricle of stage 43 tadpoles (BrdU, TUNEL); format: in vivo, Xenopus laevis; conditions: stage 43 tadpoles, 3, 7 and 12 days, vs control brains
Method: After 3, 7 and 12 days, animals were examined for changes in the patterns of cell division, differentiation, survival, and morphology of the brain. […] Whether the inhibition of NOS and excessive proliferation of cells in the developing brain affects the programmed death of neurons in the tectum was tested. […] The increase in the number of TUNEL-positive cells is not due to toxicity of the inhibitors, since cells continued to incorporate BrdU very effectively. […] Alternatively, this may indicate that differentiated neurons became dependent on NO for survival, similar to the situation in fully differentiated PC12 cells (Peunova et al., 1996). Neuronal differentiation in the brain is affected

[7] = test system: tadpole brain, optic tectum; assay: Elvax implants with NO donor or NOS inhibitor in brain ventricle of stage 45 tadpoles, optic tectum analysis; format: in vivo; conditions: 7d

COC(=O)[C@H](N)CCCN=C(N)N[N+](=O)[O-] [D-NAME, D-nitroarginine methyl ester]
increase of diameter of certain leg segments (hypertrophy, third pair of legs) [1]: not | blast cell and erythroid cells colonies [2]: 13% | erythroid colonies [2]: > 60% | granulocyte colonies [2]: 4% | megakaryocyte colonies [2]: 7.5% | blast cell colonies ([2]; injections twice a day): 14% | c-kit positive BM cells (BM cells [3]): 7% | IL-3-R positive BM cells (BM cells [3]): 12% | GM-CSF-R positive BM cells (BM cells [3]): 16% | G-CSF-R positive BM cells (BM cells [3]): 19% | blast cell colonies [4]: 6% | erythroid colonies [4]: 1.3% | granulocytic colonies [4]: 92%

CC(=O)N[C@H](C(=O)O)C(C)(C)SN=O (racemic) [SNAP, S-nitroso-N-acetylpenicillamine]
BrdU-positive cells (total) ([5]; 1d): 12 +/− 2 | BrdU-positive cells per 10^3 cells ([5]; 1d): 3 | TUNEL-positive cells (total) ([5]; 1d): 138 +/− 12 | TUNEL-positive cells per 10^3 cells ([5]; 1d): 34 | brain volume ([5]; 1d): 66.2 +/− 6.4 mm^3 × 10^−4 | cell density ([5]; 1d): 62.6 +/− 14.1 cells per mm^3 × 10^−4 | cell number ([5]; 1d): 3983 +/− 606 | BrdU-positive cells (total), change ([5]; 1d): −96.2% | BrdU-positive cells per 10^3 cells, change ([5]; 1d): −95.2% | TUNEL-positive cells (total), change ([5]; 1d): −28.2% | TUNEL-positive cells per 10^3 cells, change ([5]; 1d): −10.5% | brain volume, change ([5]; 1d): −15.6% | cell density, change ([5]; 1d): −2.8% | cell number, change ([5]; 1d): −20.7% | BrdU-positive cells (total) ([5]; 3d): 316 +/− 22 | BrdU-positive cells per 10^3 cells ([5]; 3d): 63 | TUNEL-positive cells (total) ([5]; 3d): 82 +/− 10 | TUNEL-positive cells per 10^3 cells ([5]; 3d): 16 | brain volume ([5]; 3d): 80.1 +/− 8.6* mm^3 × 10^−4 | cell density ([5]; 3d): 62.3 +/− 1.7** cells per mm^3 × 10^−4 | cell number ([5]; 3d): 5012 +/− 594** | BrdU-positive cells (total), change ([5]; 3d): −34.0% | BrdU-positive cells per 10^3 cells, change ([5]; 3d): +21.1% | TUNEL-positive cells (total), change ([5]; 3d): −51% | TUNEL-positive cells per 10^3 cells, change ([5]; 3d): −11.1% | brain volume, change ([5]; 3d): −31.3% | cell density, change ([5]; 3d): −20.8% | cell number, change ([5]; 3d): −45.1% | stock concentration found to be effective ([5]; Elvax stock, range of concentrations tested): 300 mM | number of proliferating cells, of the control value ([5]; day 1): 5%

CCSC(=N)N [ETU, 2-ethyl-2-thiopseudourea]
proportion of apoptotic cells (TUNEL) in BM (BM cells [6]): 8% | c-kit positive BM cells (BM cells [3]): 84% | IL-3-R positive BM cells (BM cells [3]): 83% | GM-CSF-R positive BM cells (BM cells [3]): 10% | G-CSF-R positive BM cells (BM cells [3]): 8% | BrdU-positive cells (total) ([5]; 7d): 550 +/− 50 | BrdU-positive cells per 10^3 cells ([5]; 7d): 42 | TUNEL-positive cells (total) ([5]; 7d): 184 +/− 7 | TUNEL-positive cells per 10^3 cells ([5]; 7d): 14 | brain volume ([5]; 7d): 122.3 +/− 4.3* mm^3 × 10^−4 | cell number ([5]; 7d): 12870 +/− 690* | BrdU-positive cells per 10^3 cells, change ([5]; 7d): +247% | TUNEL-positive cells (total), change ([5]; 7d): +128% | TUNEL-positive cells per 10^3 cells, change ([5]; 7d): +40.0% | cell number, change ([5]; 7d): +53.7% | toxicity to the animals ([5]; Elvax stock 1 M L-NAME, 10 mM ETU, increased BrdU incorporation): without any signs of toxicity | number of cells in the S phase (BrdU labeling) in the brain (developing Xenopus brain): dramatic increase | cell density [7]: 105 +/− 3* cells per mm^3 × 10^−4 | BrdU-positive cells (total), change ([7]; vs saline control): +269% | cell density, change ([7]; vs saline control): +25.5%
